Laboratory results from publication PMC5923142, “Selection and Characterization of Rupintrivir-Resistant Norwalk Virus Replicon Cells In Vitro” (Antimicrobial Agents and Chemotherapy, 2018).

What was measured:
[1] = tested on: rupintrivir-resistant Norwalk virus replicon; experiment: Susceptibility of rupintrivir-resistant replicon cells, all clones (qRT-PCR); format: cell-based, Human norovirus (HuNoV) GI; details: resistant clones vs DMSO-passaged cells
Protocol: Given the potent effects of rupintrivir on HGT-NV cells, we sought to determine whether rupintrivir-resistant replicons could be generated. To this end, HGT-NV cells were treated with 5 μM rupintrivir for 12 days in the absence of G418 selection, followed by subsequent passages in the presence of G418 with increasing concentrations of rupintrivir for up to 45 days (Fig. 1D). This approach yielded three lineages of replicon cells which were resistant to 10, 15, and 20 μM rupintrivir. To identify the mutations conferring the resistance to rupintrivir, we isolated cell clones by limiting dilution using replicon cells surviving after 45 days of culture and then evaluated the rupintrivir sensitivity of the replicon cells. […] All clones treated with 10 μM rupintrivir had the I109V single amino acid substitution, while the A105V/I109V double amino acid substitution was observed only in clones treated with 15 and 20 μM rupintrivir. […]
The inhibitory effect of rupintrivir on HuNoV replication was assessed by quantification of the levels of GI NuNoV RNA and β-actin RNA as the reference gene. […] The real-time quantitative reverse transcription-PCR (qRT-PCR) assay was performed by using a One-Step Plus qRT-PCR kit according to the protocol of the manufacturer (Primer Design). […] Relative quantification was performed using the 2^−ΔΔCT threshold cycle (CT) method ([38]). […]

[2] = target: T1, MNV I109V protease (polyprotein) (Norovirus, UniProt Q80J95, I1103V); experiment: In vitro translation, MNV polyprotein processing, I109V protease; format: biochemical, murine norovirus; details: 80 μM, rabbit reticulocyte lysate
T1 construct: in vitro-transcribed MNV full-length capped RNA containing either the WT or mutant proteases; made in house; host or cells: rabbit reticulocyte lysate (Flexi system, Promega), in vitro translation
Protocol: FIG 4 Impact of rupintrivir resistance-conferring mutations on MNV polyprotein processing in vitro. In vitro translation reactions were programmed with equal quantities of in vitro-transcribed MNV full-length capped RNA containing either the WT or mutant proteases in the presence and absence of 80 μM rupintrivir. The [^35S]methionine-labeled products were subsequently analyzed by SDS-PAGE and phosphorimaging analysis. The percentage of fully processed NS3, determined on the basis of the expected molecular mass of the proteins, was calculated and expressed relative to the total amount of viral protein produced.
In vitro translation reactions were performed using a Flexi rabbit reticulocyte lysate system (Promega). The reaction mixtures were prepared according to the manufacturer's instructions as described for capped mRNAs and programmed with 1 μg of RNA per 25-μl reaction mixture. The reaction mixtures were incubated at 30°C for 90 min prior to the addition of an equal volume of SDS-PAGE sample buffer. Samples were subsequently resolved on a 12.5% SDS-polyacrylamide gel before exposure to a phosphorimager screen.

[3] = tested on: HRV2 N165T/E3G or N165T/A103V; parameters: method as in PMID 17908951; details: serial passage of HRV2 for 62 days; cited from earlier work

SMILES: CCOC(=O)/C=C/[C@H](C[C@@H]1CCNC1=O)NC(=O)[C@@H](CC(=O)[C@@H](NC(=O)c1cc(C)on1)C(C)C)Cc1ccc(F)cc1 [rupintrivir, Rupintrivir]
- fold reduced sensitivity [1]: 4- to 11 fold
- polyprotein processing (mature NS3) [2]: still able to produce mature NS3
- fold reduced susceptibility [3]: 5 fold
